In patent publication EP3865489A1, “SPIROCYCLIC INHIBITORS OF HEPATITIS B VIRUS” (priority 2020, dated 2021) one finds EC50 data, which are given here for three compounds.

The assay deals with HBV. As to the kind of experiment: Anti-HBV activity in vitro: extracellular HBV DNA quantified by direct qPCR in HepAD38 cells. The format is cell-based. The following applies: Hepatitis B virus, doxycycline-free medium, 96 hours at 37°C, reported as EC50 threshold value, read-out: HBV inh EC50. The text has this:
HepAD38 cell line (Ladner et al., Antimicrob Agents Chemother, 1997, 41, 1715-20) was used for HBV inhibition assays. HepAD38 is a subclone, derived from Hepatoblastoma cell line HepG2 (ATCC® Number: HB-8065™), that expresses HBV genome under the transcriptional control of a tetracycline-responsive promoter in a TET-OFF system: addition of tetracycline (TET) or doxycycline suppresses HBV replication, while its removal switches on the process allowing HBV viral particles release in the cell supernatant. HepAD38 cell line is maintained in DMEM/F12, supplemented with 10% of fetal bovine serum, 1% of glutamine, 1% of penicillin/streptomycin, 0.4 mg/ml G418 and 0,3 ug/ml tetracycline. For the HBV inhibition assay, doxycycline-free medium is used in order to allow virion production.
HBV inhibition activity in vitro was performed in 96 multiwell plates. During the initial (primary) screening, compounds were first tested in triplicates at concentrations of 0.02 µM, 0.1µM, 0.5µM and 1µM. For selected compounds, an 8-point dose-response curve was obtained using 1:2 serial dilutions (starting from 0.01µM, 0.1µM, 0.4µM or 5 µM, depending on the degree of inhibition observed during the primary screening). From the dose-response curves, half maximal effective concentration (EC50) could be calculated (see also below).
In more detail, compounds - typically dissolved in DMSO stock solutions - were diluted to 2x the final desired concentration in 100 µl of the above medium (without doxycycline) and plated in three replicates in the 96-well plates. […]
Plates were then incubated 96 hours at 37°C and then subjected to cell viability assays and extracellular HBV quantification, in order to evaluate both the cytotoxic potential and the antiviral activity of compounds. Cytotoxicity was assessed by a commercial fluorescence assay that measures the metabolic activity of cells, directly related to cell viability (Cell Titer Blue, Promega). Anti-HBV activity was evaluated by quantification of extracellular HBV DNA with direct qPCR. […]
Background: In qPCR the cycle at which signal appears reflects the starting amount.
As usually defined, the EC50 is the midpoint of the concentration-response curve. On to `C[C@H](NC(=O)C(=O)N1CCC2(COc3c(cn(C)c3C(=O)Nc3ccc(F)c(F)c3)S(=O)(=O)N2)C1)C(F)(F)F` (stereo in doubt) [Example E1, N-(3,4-difluorophenyl)-7'-methyl-1-(2-oxo-2-(((S)-1,1,1-trifluoropropan-2-yl)amino)acetyl)-2'H,4'H,7'H-spiro[pyrrolidine-3,3'-pyrrolo[3,4-b][1,4,5]oxathiazepine]-6'-carboxamide 1',1'-dioxide], for which the EC50 is less than 500 nM.

Turning to `C[C@H](NC(=O)C(=O)N1CCC2(COc3c(c(Cl)n(C)c3C(=O)Nc3ccc(F)c(F)c3)S(=O)(=O)N2)C1)C(F)(F)F` (stereo in doubt) [Example E3, 8'-chloro-N-(3,4-difluorophenyl)-7'-methyl-1-(2-oxo-2-(((S)-1,1,1-trifluoropropan-2-yl)amino)acetyl)-2'H,4'H,7'H-spiro[pyrrolidine-3,3'-pyrrolo[3,4-b][1,4,5]oxathiazepine]-6'-carboxamide 1',1'-dioxide], the EC50 was less than 500 nM.

For the compound `Cc1nnc(C(=O)N2CCC3(COc4c(cn(C)c4C(=O)Nc4ccc(F)c(F)c4)S(=O)(=O)N3)C2)o1` (stereo not drawn) [Example E2, N-(3,4-difluorophenyl)-7'-methyl-1-(5-methyl-1,3,4-oxadiazole-2-carbonyl)-2'H,4'H,7'H-spiro[pyrrolidine-3,3'-pyrrolo[3,4-b][1,4,5]oxathiazepine]-6'-carboxamide 1',1'-dioxide], the EC50 is less than 500 nM.
